The assay concerns the target T1, human KSP motor domain (KSP(367H)) (Homo sapiens, UniProt P52732).
T1 construct: were used to amplify the motor domain and the neck linker region; made in house; host or cells: E. coli BL21 (DE3), vector pRSETa
T1 sequence (P52732 18-359 limits assumed): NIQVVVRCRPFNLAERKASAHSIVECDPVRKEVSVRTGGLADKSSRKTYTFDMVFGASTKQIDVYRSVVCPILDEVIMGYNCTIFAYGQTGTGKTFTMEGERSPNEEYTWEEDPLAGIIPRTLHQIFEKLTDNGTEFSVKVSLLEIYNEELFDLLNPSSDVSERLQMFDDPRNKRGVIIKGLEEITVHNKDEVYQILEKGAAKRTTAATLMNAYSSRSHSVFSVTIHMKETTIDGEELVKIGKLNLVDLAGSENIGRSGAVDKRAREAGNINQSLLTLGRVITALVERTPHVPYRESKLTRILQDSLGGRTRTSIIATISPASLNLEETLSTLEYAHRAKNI
As to the kind of experiment: Kinesin ATPase in vitro assay. The format is biochemical. As to conditions: KSP motor domain with microtubules, 1 mM ATP, 23° C.; free phosphate by quinaldine red/ammonium molybdate. The source says: I. Kinesin ATPase In Vitro Assay
Cloning and Expression of Human Poly-Histidine Tagged KSP Motor Domain (KSP(367H))
Plasmids for the expression of the human KSP motor domain construct were cloned by PCR using a pBluescript full length human KSP construct (Blangy et al., Cell, vol. 83, pp 1159-1169, 1995) as a template. The N-terminal primer 5′-[…] (SEQ. ID. NO.: 1) and the C-terminal primer 5′-[…] […] (SEQ. ID. NO.: 2) were used to amplify the motor domain and the neck linker region. The PCR products were digested with AseI and XhoI, ligated into the NdeI/XhoI digestion product of pRSETa (Invitrogen) and transformed into E. coli BL21 (DE3).
Cells were grown at 37° C. to an OD600 of 0.5. […]
The kinesin motor domain is incubated with microtubules, 1 mM ATP (1:1 MgCl2: Na-ATP), and compound at 23° C. in buffer containing 80 mM K-HEPES (pH 7.0), 1 mM EGTA, 1 mM DTT, 1 mM MgCl2, and 50 mM KCl. […] Free phosphate from the ATP hydrolysis reaction is measured via a quinaldine red/ammonium molybdate assay by adding 150 μl of quench C buffer containing a 2:1 ratio of quench A:quench B. Quench A contains 0.1 mg/ml quinaldine red and 0.14% polyvinyl alcohol; quench B contains 12.3 mM ammonium molybdate tetrahydrate in 1.15 M sulfuric acid. The reaction is incubated for 10 minutes at 23° C., and the absorbance of the phospho-molybdate complex is measured at […].

The pIC50 is the IC50 on a negative log10 scale, so that one unit is a factor of ten.

pIC50: −log10 of the molar value. Where only a bound is given, the exact number is not on record here.

As for `CN(C(=O)N1CC(c2cc(F)ccc2F)=C[C@@]1(CO)c1ccccc1)[C@H]1CCN(CCC[Si](C)(C)C)C[C@H]1F` [Compound 11-1, (2S)-4-(2,5-difluorophenyl)-N-{(3R,4S)-3-fluoro-1-[3-(trimethylsilyl)propyl]piperidin-4-yl}-2-(hydroxymethyl)-N-methyl-2-phenyl-2,5-dihydro-1H-pyrrole-1-carboxamide], the pIC50 was not below 4.30.

(Values after patent publication US20080207693A1, “Mitotic Kinesin Inhibitors” (priority 2005, published 2008).)
